# Measurements as given in US9241964B2, “Composition from Sphaeranthus indicus and Garcinia mangostana for the control of metabolic syndrome” (LAILA NUTRACEUTICALS, priority 2009, dated 2016).
# Legend:
# [1] = system: perilipin; assay: Immunoblot of perilipin in 3T3-L1 adipocytes; assay type: cell-based, mouse; conditions: immunoblot normalized with actin
# Source text: (§1) The inventors have then evaluated the modulation of metabolic biomarkers those are primarily responsible for the adipogenesis processes, insulin resistance in type 2 diabetes, obesity, metabolic syndrome and other metabolic disorders such as Peroxisome proliferator-activated receptor gamma (PPARγ), CD36, adipocyte fatty acid binding protein 4 (FABP4 or aP2), Perilipin, and beta-3 Adrenergic Receptor (β3AR) during adipogenesis process in 3T3-L1 adipocytes by ethyl actate extract (LI/DD-II/054A/01) of Sphaeranthus indicus and 7-hydroxyfrullanolide (LI054A01) using an immunoblot assay. […] The protein extracts were evaluated by immunoblot assay, and the immuno-reactive bands were developed with West-pico chemiluminescent substrate and the blot images were captured in a Kodak Image Station, normalized with expression of actin.
# (§2) Experimental protocol: Mouse pre-adipocyte 3T3-L1 cells are maintained in Dulbecco's Modified Eagles Medium (DMEM) supplemented with 2 mM glutamine, 4.5 g/L glucose and 10% fetal bovine serum. […] Protein content was measured in Bradford method by using Coomassie blue dye and cell lysates were stored in aliquots at −80° C. until further use. […]
# (§3) Inhibition of protein expression of biomarker molecules adipocytes in presence or absence of Sphaeranthus indicus extract LI/DD-II/054A/01 and 7-hydroxyfrullanolide (LI054A01) was evaluated in immunoblot assay. […]
# [2] = system: CD36; assay: Immunoblot of CD36 in 3T3-L1 adipocytes; assay type: cell-based, mouse; conditions: immunoblot normalized with actin
# Source text: as §1, §2, §3
# [3] = system: PPARγ; assay: Immunoblot of PPARγ in 3T3-L1 adipocytes; assay type: cell-based, mouse; conditions: immunoblot normalized with actin
# Source text: as §1, §2, §3
# [4] = system: aP2/FABP4; assay: Immunoblot of aP2/FABP4 in 3T3-L1 adipocytes; assay type: cell-based, mouse; conditions: immunoblot normalized with actin
# Source text: as §1, §2, §3
# [5] = system: 3T3-L1 mouse pre-adipocyte cells; assay: Inhibition of lipid accumulation in differentiated adipocytes (Oil Red O); assay type: cell-based; conditions: Mus musculus; at 0.5 μg/ml; 3T3-L1 (Table I)
# Experimental: The inhibition of fat accumulation in the treated cells was compared with the mock treated differentiated adipocytes and percentage inhibition was measured.
# One hundred thousand 3T3-L1 […] pre-adipocyte cells in Dulbecco's Modified Eagles Medium (DMEM) containing 10% Fetal Bovine Serum (FBS) were taken into each well of a 24-well plate and incubated for 48 h at 37° C. and 5% CO2. The differentiation of pre-adipocyte cells was initiated in a differentiation medium containing 10 μg/ml insulin, 1.0 μM dexamethasone, and 0.5 mM isobutylmethylxanthine (IBMX) for 48 h. After this the medium was replaced by DMEM containing 10 μg/ml insulin and incubated for 3 days. Then the differentiating cells were treated 10 μg/ml of Sphaeranthus indicus ethyl acetate extract (LI/DD-II/054A/01) and 0.5 μg/ml of 7-hydroxyfrullanolide (LI054A01) and maintained in the medium for another 3-5 days. The cells incubated with 0.1% DMSO were considered as the vehicle control. After the incubation period, cells were washed with phosphate buffered saline (PBS) and fixed with 10% buffered formalin for 1 h at room temperature. One small aliquot of cell suspension was separated for cell counting in hemocytometer chamber. Fixed cells were stained with Oil Red O solution to measure the cellular neutral lipid accumulation. Briefly, cells were washed with PBS, fixed with 10% buffered formalin and stained with Oil Red O solution (0.5 g in 100 ml isopropanol) for 10 min. After removing the staining solution, the dye retained in the cells will be eluted into isopropanol and OD measured at 550 nm. The inhibition of fat accumulation in the treated cells was compared with the mock treated differentiated adipocytes. The treated and control cells were also analyzed and compared for inhibition of lipid accumulation visually under microscope and recorded digitally in suitable image capture system. The anti-adipogenic activities shown by Sphaeranthus Indicus ethyl acetate extract (LI/DD-II/054A/01) and LIO054A01 are summarized in the following table.
smiles,measurement,setting,value
"C=C1C(=O)O[C@H]2C3=C(C)CCC[C@]3(C)CC[C@@]12O [LI054A01, 7-α-hydroxy-4,11(13)-eudesmadien-12,6-olide]",perilipin protein level,[1],potently ameliorated
same,adipocyte CD36 protein level,[2],potently ameliorated
same,PPARγ protein level,[3],potently ameliorated
same,aP2/FABP4 protein level,[4],potently ameliorated
same,inhibition at 0.5 µg/mL,[5],68.7%
